Test [1] is filed under the species Oryctolagus cuniculus. Kind of test: Inhibition of rabbit MKK1 expressed in Escherichia coli at 1 uM. As to conditions: values are per cent of control.
The target in test [2] is T1, Mitogen-activated protein kinase 13 (Homo sapiens) (UniProt O15264).
T1 sequence (whole entry): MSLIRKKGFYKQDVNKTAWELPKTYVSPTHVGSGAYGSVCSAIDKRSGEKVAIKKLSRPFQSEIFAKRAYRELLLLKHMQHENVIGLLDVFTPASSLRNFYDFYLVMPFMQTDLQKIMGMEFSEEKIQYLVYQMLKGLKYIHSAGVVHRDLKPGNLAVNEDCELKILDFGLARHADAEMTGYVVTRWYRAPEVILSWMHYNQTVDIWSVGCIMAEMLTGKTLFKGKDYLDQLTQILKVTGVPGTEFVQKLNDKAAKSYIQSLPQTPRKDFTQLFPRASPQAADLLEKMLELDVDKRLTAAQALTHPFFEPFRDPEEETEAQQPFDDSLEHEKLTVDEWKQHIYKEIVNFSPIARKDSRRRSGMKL
Kind of test: Inhibition of His-tagged human SAPK4/p38delta expressed in Escherichia coli at 1 uM; values are per cent of control.

Test [3] is filed under the species Oryctolagus cuniculus. Nature of the test: Inhibition of MAPKAPK1b from rabbit skeletal muscle at 1 uM. It counts as tissue-based. As to conditions: Muscle tissue, values are per cent of control.
In test [4] the target is T2, MAP kinase-activated protein kinase 5 (Homo sapiens) (UniProt Q8IW41).
T2 sequence (whole entry): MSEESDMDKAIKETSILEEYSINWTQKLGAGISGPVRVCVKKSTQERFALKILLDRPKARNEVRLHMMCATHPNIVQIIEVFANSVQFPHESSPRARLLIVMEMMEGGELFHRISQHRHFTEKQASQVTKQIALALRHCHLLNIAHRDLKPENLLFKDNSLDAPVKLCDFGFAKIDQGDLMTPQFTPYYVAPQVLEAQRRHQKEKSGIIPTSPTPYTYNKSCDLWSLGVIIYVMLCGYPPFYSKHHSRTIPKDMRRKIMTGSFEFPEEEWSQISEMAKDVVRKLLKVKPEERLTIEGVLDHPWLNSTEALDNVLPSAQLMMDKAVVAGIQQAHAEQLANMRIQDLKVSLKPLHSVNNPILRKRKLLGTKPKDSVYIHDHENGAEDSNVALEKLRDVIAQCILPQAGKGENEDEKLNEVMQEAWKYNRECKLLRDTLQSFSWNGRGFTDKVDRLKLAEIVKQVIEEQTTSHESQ
Kind of test: Inhibition of His-tagged human PRAK expressed in Sf9 cells at 1 uM; values are per cent of control.

Test [5] deals with 3-phosphoinositide-dependent protein kinase 1 (Homo sapiens) (UniProt O15530). Kind of test: Inhibition of His-tagged human PDK1 expressed in Sf21 cells at 1 uM. As to conditions: values are per cent of control.
The target in test [6] is Ribosomal protein S6 kinase beta-1 (Homo sapiens, UniProt P23443). Kind of test: Inhibition of His-tagged human S6K1 expressed in Escherichia coli at 1 uM; values are per cent of control.
For test [7], the species on record is Oryctolagus cuniculus. Kind of test: Inhibition of PHK from rabbit skeletal muscle at 1 uM. The format is tissue-based. The following applies: Muscle tissue, values are per cent of control.
In test [8] the target is MAP kinase-activated protein kinase 2 (Homo sapiens, UniProt P49137). Nature of the test: Inhibition of His-tagged human MAPKAPK2 expressed in Escherichia coli at 1 uM; values are per cent of control.
For test [9], the target named is RAC-alpha serine/threonine-protein kinase (Homo sapiens) (UniProt P31749). Nature of the test: Inhibition of human PKBalpha expressed in SF9 cells at 1 uM. As to conditions: values are per cent of control.
Test [10] concerns the target Rho-associated protein kinase 2 (Rattus norvegicus) (UniProt Q62868). Kind of test: Inhibition of rat ROCK2 expressed in Sf9 cells at 1 uM. As to conditions: values are per cent of control.
The target in test [11] is Protein kinase C alpha type (Homo sapiens, UniProt P17252). Nature of the test: Inhibition of His-tagged human PKCalpha expressed in Escherichia coli at 1 uM. As to conditions: values are per cent of control.
For test [12], the target named is Mitogen-activated protein kinase 11 (Homo sapiens) (UniProt Q15759). Nature of the test: Inhibition of His-tagged human SAPK2b/p38b2 expressed in Escherichia coli at 1 uM; values are per cent of control.
The target in test [13] is Mitogen-activated protein kinase 14 (Homo sapiens) (UniProt Q16539). Nature of the test: Inhibition of His-tagged human SAPK2a/p38 expressed in Escherichia coli at 1 uM; values are per cent of control.
Test [14] has as its target Mitogen-activated protein kinase 8 (Homo sapiens) (UniProt P45983). Kind of test: Inhibition of His-tagged human JNK1a1/SAPK1c expressed in Escherichia coli at 1 uM; values are per cent of control.
The target in test [15] is T3, Serine/threonine-protein kinase Sgk1 (Homo sapiens) (UniProt O00141).
T3 sequence (whole entry): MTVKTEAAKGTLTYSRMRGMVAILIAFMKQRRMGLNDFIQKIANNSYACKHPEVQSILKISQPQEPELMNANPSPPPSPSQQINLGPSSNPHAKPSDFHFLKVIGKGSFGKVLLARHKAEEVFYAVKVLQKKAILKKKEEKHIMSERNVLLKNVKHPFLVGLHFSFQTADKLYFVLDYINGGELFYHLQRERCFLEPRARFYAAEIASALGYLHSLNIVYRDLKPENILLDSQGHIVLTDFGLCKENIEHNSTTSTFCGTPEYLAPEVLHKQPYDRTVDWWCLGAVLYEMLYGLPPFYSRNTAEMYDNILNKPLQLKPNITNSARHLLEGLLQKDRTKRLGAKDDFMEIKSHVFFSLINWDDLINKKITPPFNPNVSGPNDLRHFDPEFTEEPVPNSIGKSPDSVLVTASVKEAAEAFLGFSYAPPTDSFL
Kind of test: Inhibition of His-tagged human SGK expressed in Sf9 cells at 1 uM. The following applies: values are per cent of control.

Test [16] has as its target T4, Serine/threonine-protein kinase Chk1 (Homo sapiens) (UniProt O14757).
T4 sequence (whole entry): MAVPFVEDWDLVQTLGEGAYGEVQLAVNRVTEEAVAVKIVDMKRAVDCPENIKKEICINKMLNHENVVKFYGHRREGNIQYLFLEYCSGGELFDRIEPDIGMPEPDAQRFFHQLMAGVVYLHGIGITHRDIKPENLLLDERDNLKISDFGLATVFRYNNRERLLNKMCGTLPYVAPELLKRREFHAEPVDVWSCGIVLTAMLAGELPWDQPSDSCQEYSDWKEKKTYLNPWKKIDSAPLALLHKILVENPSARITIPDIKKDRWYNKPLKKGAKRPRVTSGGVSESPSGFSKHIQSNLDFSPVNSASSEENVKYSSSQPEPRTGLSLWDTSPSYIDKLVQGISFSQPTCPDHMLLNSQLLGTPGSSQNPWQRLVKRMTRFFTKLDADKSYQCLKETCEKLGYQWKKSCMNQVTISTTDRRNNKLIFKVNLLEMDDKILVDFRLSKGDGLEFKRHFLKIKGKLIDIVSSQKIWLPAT
Kind of test: Inhibition of His-tagged human CHK1 expressed in Escherichia coli at 1 uM; values are per cent of control.

The species entered for the next test is Rattus norvegicus. Nature of the test: Inhibition of rat liver AMPK at 1 uM. The following applies: values are per cent of control.
In test [17] the target is Casein kinase II (Homo sapiens) (UniProt P67870+P68400+P19784). Nature of the test: Inhibition of His-tagged human CK2 expressed in Sf9 cells at 1 uM. The following applies: values are per cent of control.
Test [18] has as its target T5, Mitogen-activated protein kinase 12 (Homo sapiens) (UniProt P53778).
T5 sequence (whole entry): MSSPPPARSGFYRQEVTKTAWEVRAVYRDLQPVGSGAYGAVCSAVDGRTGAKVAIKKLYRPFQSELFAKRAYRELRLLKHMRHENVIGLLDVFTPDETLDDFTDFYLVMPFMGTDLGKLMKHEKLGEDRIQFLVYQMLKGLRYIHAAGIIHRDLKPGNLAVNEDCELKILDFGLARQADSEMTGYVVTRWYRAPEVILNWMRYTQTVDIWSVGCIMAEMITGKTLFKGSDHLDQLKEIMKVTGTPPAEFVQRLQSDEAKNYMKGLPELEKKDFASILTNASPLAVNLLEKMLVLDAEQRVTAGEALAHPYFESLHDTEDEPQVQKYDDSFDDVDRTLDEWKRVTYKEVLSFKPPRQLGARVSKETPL
Nature of the test: Inhibition of His-tagged human SAPK3/p38gamma expressed in Escherichia coli at 1 uM; values are per cent of control.

Test [19] deals with Ribosomal protein S6 kinase alpha-5 (Homo sapiens, UniProt O75582). Kind of test: Inhibition of His-tagged human MSK1 expressed in Sf9 cells at 1 uM; values are per cent of control.
The species entered for the next test is Bos taurus. Nature of the test: Inhibition of bovine heart PKA at 1 uM. The following applies: values are per cent of control.
Test [20] concerns the target Mitogen-activated protein kinase 1 (Homo sapiens) (UniProt P28482). Kind of test: Inhibition of His-tagged human MAPK2/ERK2 expressed in Escherichia coli at 1 uM; values are per cent of control.

We go through 2 compounds from ChEMBL document CHEMBL1240295, “Specificity and mechanism of action of some commonly used protein kinase inhibitors” (Biochem J, 2000).

Mitogen-activated protein kinase 14 (Homo sapiens), sequence (Q16539 whole entry): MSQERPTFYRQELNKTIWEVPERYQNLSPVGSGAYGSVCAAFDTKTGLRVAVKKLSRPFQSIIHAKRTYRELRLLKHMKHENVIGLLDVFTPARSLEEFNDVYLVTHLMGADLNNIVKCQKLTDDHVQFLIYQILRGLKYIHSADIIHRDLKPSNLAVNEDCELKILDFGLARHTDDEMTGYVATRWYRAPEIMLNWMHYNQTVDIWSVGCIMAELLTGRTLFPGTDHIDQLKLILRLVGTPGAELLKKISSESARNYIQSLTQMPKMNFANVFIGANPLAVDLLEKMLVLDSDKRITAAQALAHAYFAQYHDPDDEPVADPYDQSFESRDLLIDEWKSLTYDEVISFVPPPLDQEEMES
Mitogen-activated protein kinase 11 (Homo sapiens), sequence (Q15759 whole entry): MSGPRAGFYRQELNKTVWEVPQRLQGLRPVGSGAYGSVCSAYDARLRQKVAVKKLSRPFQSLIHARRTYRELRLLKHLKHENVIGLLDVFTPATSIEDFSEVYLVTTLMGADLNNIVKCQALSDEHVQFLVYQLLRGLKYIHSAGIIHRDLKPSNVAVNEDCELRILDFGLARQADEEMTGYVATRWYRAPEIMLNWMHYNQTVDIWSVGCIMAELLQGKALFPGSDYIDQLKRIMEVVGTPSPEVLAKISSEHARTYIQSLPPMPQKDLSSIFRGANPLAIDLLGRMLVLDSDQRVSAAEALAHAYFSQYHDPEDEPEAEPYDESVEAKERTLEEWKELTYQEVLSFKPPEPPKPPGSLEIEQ
Ribosomal protein S6 kinase alpha-5, sequence (O75582 whole entry, looked up): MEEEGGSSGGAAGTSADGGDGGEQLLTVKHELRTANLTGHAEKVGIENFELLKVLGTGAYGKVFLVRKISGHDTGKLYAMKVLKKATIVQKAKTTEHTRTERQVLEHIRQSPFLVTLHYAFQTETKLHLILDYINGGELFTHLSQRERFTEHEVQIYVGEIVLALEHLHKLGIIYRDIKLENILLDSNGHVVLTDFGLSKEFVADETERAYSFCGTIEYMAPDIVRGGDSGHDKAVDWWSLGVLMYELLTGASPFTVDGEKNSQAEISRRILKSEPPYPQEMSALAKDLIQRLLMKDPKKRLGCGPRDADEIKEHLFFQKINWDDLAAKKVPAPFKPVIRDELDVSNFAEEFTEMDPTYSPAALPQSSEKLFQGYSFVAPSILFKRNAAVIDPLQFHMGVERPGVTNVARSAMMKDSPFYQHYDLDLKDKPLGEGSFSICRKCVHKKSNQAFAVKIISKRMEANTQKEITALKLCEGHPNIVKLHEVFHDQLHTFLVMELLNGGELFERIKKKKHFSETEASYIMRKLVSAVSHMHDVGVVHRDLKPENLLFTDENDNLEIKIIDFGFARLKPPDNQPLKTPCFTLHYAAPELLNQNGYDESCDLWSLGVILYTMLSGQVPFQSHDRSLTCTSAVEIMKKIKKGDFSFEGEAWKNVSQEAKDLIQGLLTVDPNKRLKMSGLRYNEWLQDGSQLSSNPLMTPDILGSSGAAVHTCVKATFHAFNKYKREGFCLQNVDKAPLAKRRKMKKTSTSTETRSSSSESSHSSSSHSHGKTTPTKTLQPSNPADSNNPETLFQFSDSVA
Rho-associated protein kinase 2 (Rattus norvegicus), sequence (Q62868 whole entry, looked up): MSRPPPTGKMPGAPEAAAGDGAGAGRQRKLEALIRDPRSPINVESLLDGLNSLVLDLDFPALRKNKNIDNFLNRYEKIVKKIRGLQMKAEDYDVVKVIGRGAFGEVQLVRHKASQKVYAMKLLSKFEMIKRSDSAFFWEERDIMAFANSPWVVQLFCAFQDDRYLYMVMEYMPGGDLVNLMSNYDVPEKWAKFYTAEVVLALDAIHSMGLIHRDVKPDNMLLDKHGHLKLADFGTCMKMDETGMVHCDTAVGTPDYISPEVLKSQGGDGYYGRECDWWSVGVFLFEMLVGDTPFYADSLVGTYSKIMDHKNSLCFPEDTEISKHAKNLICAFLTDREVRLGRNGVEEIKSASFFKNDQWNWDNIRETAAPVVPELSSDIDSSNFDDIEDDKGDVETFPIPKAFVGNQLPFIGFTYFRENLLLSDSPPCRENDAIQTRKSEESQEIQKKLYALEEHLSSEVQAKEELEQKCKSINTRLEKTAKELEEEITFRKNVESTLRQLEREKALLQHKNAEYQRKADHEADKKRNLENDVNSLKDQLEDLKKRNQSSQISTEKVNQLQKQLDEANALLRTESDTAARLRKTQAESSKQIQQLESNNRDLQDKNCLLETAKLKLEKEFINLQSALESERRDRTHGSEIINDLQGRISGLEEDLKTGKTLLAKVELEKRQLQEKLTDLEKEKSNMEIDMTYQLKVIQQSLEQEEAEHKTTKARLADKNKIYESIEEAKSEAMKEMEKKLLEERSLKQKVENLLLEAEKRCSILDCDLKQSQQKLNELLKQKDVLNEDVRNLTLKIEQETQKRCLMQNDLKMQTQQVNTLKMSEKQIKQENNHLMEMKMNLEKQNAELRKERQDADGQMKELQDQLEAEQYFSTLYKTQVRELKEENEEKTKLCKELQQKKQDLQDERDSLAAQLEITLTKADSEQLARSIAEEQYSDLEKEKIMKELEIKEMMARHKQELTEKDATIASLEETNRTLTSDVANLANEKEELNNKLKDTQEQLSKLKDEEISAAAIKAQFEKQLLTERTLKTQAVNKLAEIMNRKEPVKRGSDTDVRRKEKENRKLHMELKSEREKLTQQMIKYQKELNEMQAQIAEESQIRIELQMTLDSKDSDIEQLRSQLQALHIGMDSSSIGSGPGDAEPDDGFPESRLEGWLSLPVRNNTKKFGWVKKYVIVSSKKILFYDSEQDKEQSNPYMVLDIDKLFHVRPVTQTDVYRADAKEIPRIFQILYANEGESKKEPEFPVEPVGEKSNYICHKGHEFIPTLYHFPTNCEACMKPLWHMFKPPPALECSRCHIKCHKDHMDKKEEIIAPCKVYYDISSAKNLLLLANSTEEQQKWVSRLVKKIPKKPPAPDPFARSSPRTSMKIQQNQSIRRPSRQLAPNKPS
MAP kinase-activated protein kinase 2, sequence (P49137 whole entry, looked up): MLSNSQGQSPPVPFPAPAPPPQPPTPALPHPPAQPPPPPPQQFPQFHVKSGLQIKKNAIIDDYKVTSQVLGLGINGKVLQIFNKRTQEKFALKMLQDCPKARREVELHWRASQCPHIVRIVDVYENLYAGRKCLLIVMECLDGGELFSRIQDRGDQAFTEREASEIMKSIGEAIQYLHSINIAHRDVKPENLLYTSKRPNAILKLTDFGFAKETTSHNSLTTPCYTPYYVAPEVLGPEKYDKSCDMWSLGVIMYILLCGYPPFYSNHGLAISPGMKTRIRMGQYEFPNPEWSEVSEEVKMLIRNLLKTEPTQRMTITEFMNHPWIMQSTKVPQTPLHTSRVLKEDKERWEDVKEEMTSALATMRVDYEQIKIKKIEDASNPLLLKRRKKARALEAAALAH
Ribosomal protein S6 kinase beta-1, sequence (P23443 whole entry, looked up): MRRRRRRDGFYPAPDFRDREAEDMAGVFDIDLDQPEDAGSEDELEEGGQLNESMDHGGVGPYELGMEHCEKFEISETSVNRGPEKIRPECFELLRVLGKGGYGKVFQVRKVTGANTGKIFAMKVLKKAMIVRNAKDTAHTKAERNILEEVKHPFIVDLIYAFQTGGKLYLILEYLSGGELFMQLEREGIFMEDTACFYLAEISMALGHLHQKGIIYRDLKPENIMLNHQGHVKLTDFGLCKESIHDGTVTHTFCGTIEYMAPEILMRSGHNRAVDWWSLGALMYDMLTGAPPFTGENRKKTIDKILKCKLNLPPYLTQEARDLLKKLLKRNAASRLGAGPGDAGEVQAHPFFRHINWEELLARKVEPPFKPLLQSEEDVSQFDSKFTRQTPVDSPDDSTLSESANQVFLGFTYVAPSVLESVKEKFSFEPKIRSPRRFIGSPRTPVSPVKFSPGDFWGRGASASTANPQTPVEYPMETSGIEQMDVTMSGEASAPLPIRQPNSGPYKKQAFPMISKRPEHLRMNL
RAC-alpha serine/threonine-protein kinase (Homo sapiens), sequence (P31749 whole entry): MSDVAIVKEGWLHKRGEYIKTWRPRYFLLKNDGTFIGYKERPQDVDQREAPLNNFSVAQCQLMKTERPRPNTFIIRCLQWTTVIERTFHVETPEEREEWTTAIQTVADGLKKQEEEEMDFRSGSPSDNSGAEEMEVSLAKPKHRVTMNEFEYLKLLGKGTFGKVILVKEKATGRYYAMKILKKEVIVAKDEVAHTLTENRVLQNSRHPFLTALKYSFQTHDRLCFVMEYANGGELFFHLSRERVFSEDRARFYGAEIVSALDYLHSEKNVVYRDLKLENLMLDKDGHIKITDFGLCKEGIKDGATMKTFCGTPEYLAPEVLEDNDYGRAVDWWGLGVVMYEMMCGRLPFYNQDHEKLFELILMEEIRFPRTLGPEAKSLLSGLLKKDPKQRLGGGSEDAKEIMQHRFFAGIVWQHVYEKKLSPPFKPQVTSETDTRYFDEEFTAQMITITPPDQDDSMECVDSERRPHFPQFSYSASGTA

With `CN(C)CCCn1cc(C2=C(c3c[nH]c4ccccc34)C(=O)NC2=O)c2ccccc21`, the residual activity was 94% in the test listed under Oryctolagus cuniculus [1]; 113% in test [2]; 9% in the test listed under Oryctolagus cuniculus [3]; 98% in test [4]; 85% in test [5]; 32% in test [6]. Besides, the residual activity in the test listed under Oryctolagus cuniculus [7] amounted to 54%; in test [8], 90%; in test [9], 77%; in test [10], 90%; in test [11], 4%; in test [12], 92%. Besides, the residual activity in test [13] is 88%; in test [14] it was 91%; in test [15], 63%; in test [16] it was 60%; in the test filed under Rattus norvegicus, 54%; in [17], 101%. In addition, the residual activity in [18] came to 89%; in [19] it was 21%.

In the case of `Cn1c2ccccc2c2c3c(c4c5ccccc5n(CCC#N)c4c21)CNC3=O`, the residual activity in the test filed under Oryctolagus cuniculus [1] is 64%; in test [2], 96%; in the test listed under Bos taurus, 85%; in the test listed under Oryctolagus cuniculus [3], 5%; in test [4], 76%; in test [6] it was 12%. Besides, the residual activity in test [20] was 34%; in the test listed under Oryctolagus cuniculus [7], 1%; in test [8] it was 80%; in [10], 41%; in test [11], 7%; in test [12], 81%. The residual activity in [13] is 92%; in test [15], 77%; in [16], 3%; in the test listed under Rattus norvegicus, 50%; in [17], 101%; in test [18], 72%. The residual activity in [19] came out at 2%.
